The source of these data is article PMC5008855 (Organic & biomolecular chemistry, 2016).

As usually defined, the pIC50 is the negative decadic logarithm of the IC50, by convention in mol/L. A higher pIC50 goes with a low IC50.

pIC50: −log10 of the molar value.

The test has as its target T1, human COX-2 enzyme (cyclooxygenase II) (Homo sapiens, UniProt P35354).
T1 sequence (P35354 18-604): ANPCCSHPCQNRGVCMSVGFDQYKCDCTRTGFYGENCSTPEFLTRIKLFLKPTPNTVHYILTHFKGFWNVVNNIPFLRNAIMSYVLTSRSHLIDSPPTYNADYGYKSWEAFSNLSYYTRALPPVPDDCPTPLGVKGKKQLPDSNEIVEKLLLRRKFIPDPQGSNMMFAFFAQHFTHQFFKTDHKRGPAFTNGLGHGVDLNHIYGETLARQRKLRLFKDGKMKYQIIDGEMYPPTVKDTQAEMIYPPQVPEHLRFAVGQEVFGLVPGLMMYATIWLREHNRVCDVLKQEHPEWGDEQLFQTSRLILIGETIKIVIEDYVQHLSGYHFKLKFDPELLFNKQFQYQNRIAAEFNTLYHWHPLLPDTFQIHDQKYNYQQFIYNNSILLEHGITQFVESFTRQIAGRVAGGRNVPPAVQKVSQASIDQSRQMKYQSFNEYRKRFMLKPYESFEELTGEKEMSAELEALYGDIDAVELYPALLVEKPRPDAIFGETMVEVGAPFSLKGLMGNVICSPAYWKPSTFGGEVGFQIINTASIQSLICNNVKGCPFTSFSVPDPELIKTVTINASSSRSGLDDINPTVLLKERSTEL
The experiment in a line: human COX-2 activity inhibition assay. It counts as biochemical.

The substance homoneoprofen [compound 2] gave a pIC50 of 5.70.
